# Patent US8580920B2, “Peptides useful for skin lightening” (Conopco, Inc., priority 2009, dated 2013)
# Read-outs that look alike come from different tables or passages of the source. Bridges are numbered along the chain shown (N, C = ends).
# Tested on: human epidermal keratinocytes neonatal (HeKn) and human epidermal melanocytes neonatal darkly pigmented (HeMnDP) co-culture
# Settings: 72 hours, with respect to untreated control
# Protocol: The ability of various materials to act as skin lightening agents was measured using the melanin content assay. The experiments were carried out as per the following procedure:
# A 2:1 ratio mix containing 100 000 human epidermal keratinocytes neonatal (HeKn) (neonatal foreskin keratinocytes from Cascade Biologicals) and 50 000 human epidermal melanocytes neonatal darkly pigmented (HeMnDP) (darkly pigmenting cells neonatal foreskin melanocytes from Cascade Biologicals) were seeded per well, in a 24 well cell culture plate, to establish a co-culture system. After overnight incubation, cells were treated with fresh media containing the test actives (untreated or vehicle controls set up in parallel) and incubated for 72 hours after treatment. Then media was removed and replaced with 80 μl of dimethyl sulphoxide (DMSO). The plate was further incubated with DMSO for 1 hour at 65° C., after which the well contents were triturated and the same sample used to assay both for melanin content (read at 450 nm in a plate reader) and protein estimation (regular BiCinchoninic Acid method, kit from Peirce). % reduction in melanin was with respect to untreated control.
compound,measurement,setting,value
-Gly-Cys-His-Gly-His-Pro-Phe-Ala-Pro-Cys-Ala- [Peptide 2] (H-GCHGHPFAPCA-OH; disulfide 2-10; N-terminus and C-terminus assumed; SMILES C[C@H](NC(=O)[C@@H]1CSSC[C@H](NC(=O)CN)C(=O)N[C@@H](Cc2c[nH]cn2)C(=O)NCC(=O)N[C@@H](Cc2c[nH]cn2)C(=O)N2CCC[C@H]2C(=O)N[C@@H](Cc2ccccc2)C(=O)N[C@@H](C)C(=O)N2CCC[C@H]2C(=O)N1)C(=O)O),% REDUCTION IN MELANIN CONTENT,46 μM,12 (±10) %
-Gly-Cys-Leu-Ser-Arg-His-Val-Leu-Gln-Cys-Ala- [Peptide 1],% REDUCTION IN MELANIN CONTENT,42 μM,5 (±2) %
same,% REDUCTION IN MELANIN CONTENT,420 μM,22 (±3) %
"O=c1cc(CO)occ1O [Kojic acid, reference compound]",% REDUCTION IN MELANIN CONTENT,100 μM,19 (±1) %
